{"source": "patent US8119695B2", "about": "“Compounds and methods for treating breast cancer and other diseases” (City of Hope, priority 2003, dated 2012)", "assay_type_in_all_cases": "cell-based", "key": {"ERRβ (GAL-L-ERRb)": {"target": "T1, ERRβ (GAL-L-ERRb) (Homo sapiens, UniProt O95718)", "T1 construct": "expressed in transfected cells", "T1 sequence (O95718 208-432 limits assumed)": "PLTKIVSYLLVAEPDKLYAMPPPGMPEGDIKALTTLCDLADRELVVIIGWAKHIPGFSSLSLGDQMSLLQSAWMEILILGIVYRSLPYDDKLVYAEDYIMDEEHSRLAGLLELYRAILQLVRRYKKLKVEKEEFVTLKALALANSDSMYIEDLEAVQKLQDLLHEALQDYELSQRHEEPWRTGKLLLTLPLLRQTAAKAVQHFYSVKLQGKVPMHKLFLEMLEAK", "assay": "MH100x4 luciferase reporter with GAL-L-ERRb", "set-up": "Reporter Activity: unit not given here", "settings": "Table 3, dose 2.5 (unit not given)", "from_the_text": "(§1) MH100x4 is a luciferase reporter with four copies of a GAL4 […] response element. GAL-L refers to the ligand-binding domain of the indicated receptor fused to the C-terminus of the GAL4 DNA binding domain."}, "ERRα (GAL-ERRa)": {"tested_on": "ERRα (GAL-ERRa)", "assay": "MH100x4 luciferase reporter with GAL-ERRa", "set-up": "Reporter Activity: unit not given here", "settings": "Table 3, dose 2.5 (unit not given)", "from_the_text": "as §1"}, "ERRγ (GAL-ERRg)": {"tested_on": "ERRγ (GAL-ERRg)", "assay": "MH100x4 luciferase reporter with GAL-ERRg", "set-up": "Reporter Activity: unit not given here", "settings": "Table 3, dose 2.5 (unit not given)", "from_the_text": "as §1"}, "MH100x4": {"tested_on": "MH100x4", "assay": "MH100x4 luciferase reporter without receptor", "settings": "Table 3, dose 2.5 (unit not given)", "from_the_text": "as §1"}, "ERRs": {"tested_on": "ERRs", "assay": "repression / antagonism of ERRs", "settings": "result in words"}}, "data": [{"smiles": "Oc1ccc(C(=C(CCCCl)c2ccccc2)c2ccc(O)cc2)cc1", "note": "[DY31]", "values": [{"measurement": "Fold Activation", "setting": "ERRβ (GAL-L-ERRb); None 1", "value": 0.74}, {"measurement": "Reporter Activity", "setting": "ERRβ (GAL-L-ERRb); None 2.38", "value": 1.75}, {"measurement": "Fold Activation", "setting": "ERRα (GAL-ERRa); None 1", "value": 1.06}, {"measurement": "Reporter Activity", "setting": "ERRα (GAL-ERRa); None 8.18", "value": 8.71}, {"measurement": "Fold Activation", "setting": "ERRγ (GAL-ERRg); None 1", "value": 0.53}, {"measurement": "Reporter Activity", "setting": "ERRγ (GAL-ERRg); None 2.2", "value": 1.16}, {"measurement": "Reporter Activity", "setting": "MH100x4; None 0.57", "value": 0.4}, {"measurement": "Fold Activation", "setting": "MH100x4; None 1", "value": 0.7}, {"measurement": "repression of ERRs", "setting": "ERRs", "value": "does not repress ERRs"}]}]}
